According to patent US20260248918A1, “COMPOSITIONS AND METHODS OF SUPPRESSING AVERSIVENESS OF PHARMACEUTICALS AND INGESTIBLE MATERIALS” (Monell Chemical Senses Center, priority 2019, published 2026):
Structures can show the parent of a compound that is named as a salt. Values belong to the molecule of their own block, whether it stands above or below them.

Experiments:
TAS2R14 = biological target: T1, TAS2R14 (Homo sapiens, UniProt Q9NYV8); experiment: Response profile of TAS2Rs to target compounds: TAS2R14; type: cell-based; conditions: FIG. 4: Praziquantel 0.75 mM, L-praziquantel 0.1 mM, Dihydroartemisinin 2 mM (not fully dissolved), Piperaquine 0.5 mM, TAF 1 mM, Ritonavir 1 mM, Zinc sulfate 20 mM
T1 sequence (Q9NYV8 1-317): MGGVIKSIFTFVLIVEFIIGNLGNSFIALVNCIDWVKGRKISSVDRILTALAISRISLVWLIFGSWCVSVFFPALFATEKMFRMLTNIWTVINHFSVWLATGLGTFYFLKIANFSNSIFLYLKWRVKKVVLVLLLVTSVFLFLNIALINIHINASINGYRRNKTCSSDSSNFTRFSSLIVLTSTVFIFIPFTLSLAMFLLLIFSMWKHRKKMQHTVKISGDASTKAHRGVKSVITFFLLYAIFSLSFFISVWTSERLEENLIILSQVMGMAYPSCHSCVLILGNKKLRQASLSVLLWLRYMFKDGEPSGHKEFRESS
Description: (§1) FIG. 4 is a table showing response profiles of TAS2Rs to indicated target compounds at indicated concentrations. Praziquantel: 0.75 mM, L-praziquantel: 0.1 mM, Zinc sulfate: 20 mM, Dihydroartemisinin: 2 mM (not fully dissolved), Piperaquine, 0.5 mM, Tenofovir (TAF), 1 mM and Ritonavir, 1 mM. Symbols: + means that there was activation; a − negative sign means that there was no significant activation of the receptor; a “larger + sign” means that receptor(s) were most sensitive to the compound (activated at lower concentrations.
(§2) Using a primary hTBEC platform, a high throughput screening (HTS) was conducted with more than 2,000 small molecular weight purified phytochemicals and botanical extracts. The screen identified 40 antagonists that suppressed taste cell activation by target APIs. […] TAS2R1 is responsive to piperaquine and tenofovir. (See FIG. 4)

TAS2R1 = biological target: T2, TAS2R1 (Homo sapiens, UniProt Q9NYW7); experiment: Response profile of TAS2Rs to target compounds: TAS2R1; type: cell-based; conditions: FIG. 4: Piperaquine 0.5 mM, Tenofovir (TAF) 1 mM
T2 sequence (Q9NYW7 1-299): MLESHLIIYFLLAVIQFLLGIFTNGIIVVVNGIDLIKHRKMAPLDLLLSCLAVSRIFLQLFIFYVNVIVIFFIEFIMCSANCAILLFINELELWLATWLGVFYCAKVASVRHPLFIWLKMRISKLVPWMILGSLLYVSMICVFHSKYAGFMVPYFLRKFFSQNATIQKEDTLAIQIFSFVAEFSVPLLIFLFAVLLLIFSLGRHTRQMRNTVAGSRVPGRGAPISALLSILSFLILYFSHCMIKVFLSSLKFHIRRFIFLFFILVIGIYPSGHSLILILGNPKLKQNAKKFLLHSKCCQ
Description: as §1, §2

TAS2R39 [1] = biological target: T3, TAS2R39 (Homo sapiens, UniProt P59534); experiment: Response profile of TAS2Rs to target compounds: TAS2R39; type: cell-based; set-up: expressed in transfected cells; host or cells: HEK; conditions: FIG. 4: Piperaquine 0.5 mM, Tenofovir (TAF) 1 mM, Dihydroartemisinin 2 mM (not fully dissolved)
T3 sequence (P59534 1-338): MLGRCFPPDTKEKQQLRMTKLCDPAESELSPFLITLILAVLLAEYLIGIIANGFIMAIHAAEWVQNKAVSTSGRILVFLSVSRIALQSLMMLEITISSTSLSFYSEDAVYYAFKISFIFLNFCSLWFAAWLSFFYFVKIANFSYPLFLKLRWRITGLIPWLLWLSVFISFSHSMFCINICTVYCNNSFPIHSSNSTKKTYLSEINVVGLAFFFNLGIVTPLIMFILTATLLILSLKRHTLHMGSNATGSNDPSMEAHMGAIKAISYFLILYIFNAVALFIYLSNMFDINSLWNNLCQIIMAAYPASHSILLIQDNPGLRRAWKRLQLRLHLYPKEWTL
Description: as §1, §2

TAS2R39 [2] = biological target: T3, TAS2R39; conditions: reported in Roland et al. 2014, data not shown; cited from earlier work
human subjects = experiment: Human sensory testing (gLMS) of API bitterness with blocker, as pre-rinse or admixture; type: in vivo; conditions: added as sensory excipients to APIs
From the text: Methods of evaluating the sensory properties of the API and admixtures with the blocker compounds of Formula A are adopted from Breslin PA, and Tharp CD, “Reduction of saltiness and bitterness after a chlorhexidine rinse,” Chem Senses. 2001 February; 26(2):105-16. More details are illustrated below.
Subjects participate in the study after providing informed consent. Gender of the subjects is balanced between male and female. The subjects are adults with ages ranging from 20 years old to 50 years old. […] The participants are asked to refrain from eating, drinking, or chewing gum for 1 hr prior to testing. Subjects are trained to use the General Labeled Magnitude Scale (gLMS) following standard published procedures. See. e.g., Breslin P A, and Tharp C D. “Reduction of saltiness and bitterness after a chlorhexidine rinse,” Chem Senses. 2001 February; 26(2): 105-16; Keast and Breslin, “Bitterness suppression with zinc sulfate and Na-cyclamate: a model of combined peripheral and central neural approaches to flavor modification.” Pharm Res. 2005 November; 22(11):1970-7. Epub 2005 Aug. 26; Green et al, “Evaluating the ‘Labeled Magnitude Scale’ for measuring sensations of taste and smell.” Chem Senses. 1996 June; 21(3):323-34; Barry G. Green, et al, “Derivation and evaluation of a semantic scale of oral sensation magnitude with apparent ratio properties,” Chemical Senses, Volume 18, Issue 6, 1 Dec. 1993, Pages 683-702; and Bartoshuk L M, “Comparing sensory experiences across individuals: recent psychophysical advances illuminate genetic variation in taste perception.” Chem Senses. 2000 August; 25(4):447-60.
The selected API (in racemic or L form as applicable) is diluted/dissolved in deionized (di) filtered water upon use into various concentrations. […] The API is prepared and dissolved in deionized filtered water or in […] 6-methylflavone to a final concentration. All solutions are stored on ice or at 4° C. to 8° C. and brought up to room temperature prior to testing.
The following testing protocol is performed. The tested solutions are provided to the subjects in random order. Subjects rinsed with di water at least four times over a 2-minute period prior to tasting each solution. The subjects are instructed to wear nose clips to eliminate olfactory input, pour the whole solution in their mouth for 3-5 seconds, and rate the perceived sensation (including bitterness, sourness, astringency, burning, stinging and nausea) intensity of the solution while it remained in the mouth, prior to expectorating. Taste intensity is recorded on a computerized gLMS, analyzed and plotted.

Activation of TAS2R14 (TAS2R14): one of most responsive receptors
Molecule: O=C(C1CCCCC1)N1CC(=O)N2CCc3ccccc3C2C1 (racemic) [Praziquantel]

Molecule: CC(C)OC(=O)[C@H](C)N[P@](=O)(CO[C@H](C)Cn1cnc2c(N)ncnc21)Oc1ccccc1 [TAF, tenofovir alafenamide fumarate]
Activation of TAS2R1 (TAS2R1): responsive
Activation of TAS2R39 (TAS2R39 [1]): one of the most responsive receptors

Activation of TAS2R1 (TAS2R1): responsive
Activation of TAS2R39 (TAS2R39 [1]): one of the most responsive receptors
Molecule: Clc1ccc2c(N3CCN(CCCN4CCN(c5ccnc6cc(Cl)ccc56)CC4)CC3)ccnc2c1 [Piperaquine]

Molecule: COc1ccc2oc(-c3ccccc3)cc(=O)c2c1 [6-methoxyflavone]
Inhibition of hTAS2R39 activation (TAS2R39 [2]): unable to inhibit

Activation of TAS2R14 (TAS2R14): one of most responsive receptors
Molecule: CC(C)c1nc(CN(C)C(=O)N[C@H](C(=O)N[C@@H](Cc2ccccc2)C[C@H](O)[C@H](Cc2ccccc2)NC(=O)OCc2cncs2)C(C)C)cs1 [Ritonavir]

Molecule: sodium
Reduction of API bitterness by sensory excipients (human subjects): significantly reduce

Activation of TAS2R14 (TAS2R14): one of most responsive receptors
Molecule: O=C(C1CCCCC1)N1CC(=O)N2CCc3ccccc3[C@@H]2C1 [L-praziquantel]

Molecule: zinc
Reduction of API bitterness by sensory excipients (human subjects): significantly reduce
